IC50 data for 21 compounds are collected here from patent US20240239799A1, “(S)-1-(5-((PYRIDIN-3-YL)THIO)PYRAZIN-2-YL)-4'H,6'H-SPIRO[PIPERIDINE-4,5'-PYRROLO [1,2-B]PYRAZOL]-4'-AMINE DERIVATIVES AND SIMILAR COMPOUNDS AS SHP2 INHIBITORS FOR THE TREATMENT OF E.G. CANCER” (C.N.C.C.S. S.C.A.R.L. COLLEZIONE NAZIONALE DEI COMPOSTI …, priority 2021, published 2024).

Test [1] has as its system phospho-ERK1/2 (Thr202/Tyr204) in KYSE-520 cells. Briefly: Phospho-ERK cellular assay (TR-FRET). It counts as cell-based. The settings on record: KYSE-520 cells, 2 h at 37° C., read-out: pERK IC50. As for the experimental part: ERK phosphorylation was detected using the “Advanced phospho-ERK1/2 (Thr202/Tyr204)” TR-FRET kit (Cisbio, Cat #64AERPEG/H), following the manufacturer reagents and instructions.
Briefly, 20.000/well KYSE-520 cells (DSMZ ACC 371) were plated in 6 μL RPMI-1640 (Invitrogen) growth medium, into 384 white low-volume high base TC microplates (Greiner). After an overnight incubation, cells were treated with DMSO serial diluted compounds and incubated for 2 h at 37° C. After incubation, 2 μL/well of 4X Lysis Buffer (Cisbio 64KL1FDF), were added and incubated with cells for 30 min on gentle shaking. Finally, lysates were added with 2 μL/well of Eu cryptate (donor) and D2 (acceptor) conjugated antibodies (as provided by the Cisbio kit #64AERPEG/H) diluted 1:100 in Detection Buffer (as provided by the Cisbio kit #64AERPEG/H). Plates were then sealed and incubated at rt in the dark. After an overnight incubation, the TR-FRET signal was detected on a suitable reader (Envision, PerkinElmer). The lower the TR-FRET signal the higher the higher the SHP2 inhibition in cells.
The activity of each compound dilution was calculated as percentage between vehicle DMSO treated cells and no cells, 0% inhibition and 100% inhibition respectively. The percentage activity is fitted against the compound dilutions with a four-parameter logistic regression. The inflection point (i.e. the concentration at which half-maximal inhibition is achieved) is the IC50.

The target of test [2] is T1, SHP-2 enzyme (Met1-Leu525) (Homo sapiens, UniProt Q06124).
T1 construct: synthetized by Origene, Met1-Leu525, cat #TP750155; purchased Origene TP750155
T1 sequence (Q06124 1-525): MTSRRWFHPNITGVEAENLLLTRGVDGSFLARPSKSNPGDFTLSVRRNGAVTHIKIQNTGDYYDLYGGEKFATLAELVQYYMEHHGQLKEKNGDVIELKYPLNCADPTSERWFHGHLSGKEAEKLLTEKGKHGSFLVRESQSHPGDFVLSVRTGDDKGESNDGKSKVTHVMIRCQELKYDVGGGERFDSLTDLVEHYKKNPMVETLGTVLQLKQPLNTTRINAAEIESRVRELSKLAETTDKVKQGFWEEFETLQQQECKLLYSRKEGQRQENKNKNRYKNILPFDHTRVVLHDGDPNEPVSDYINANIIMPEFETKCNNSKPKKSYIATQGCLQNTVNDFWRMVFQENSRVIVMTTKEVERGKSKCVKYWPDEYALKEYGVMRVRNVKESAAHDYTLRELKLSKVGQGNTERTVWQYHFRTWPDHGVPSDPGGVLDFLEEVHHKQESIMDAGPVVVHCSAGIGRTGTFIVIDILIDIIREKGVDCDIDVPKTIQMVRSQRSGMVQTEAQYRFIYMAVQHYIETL
The test is described as follows: SHP2 inhibition enzymatic assay (DiFMUP substrate, IRS1 peptide activation). It counts as biochemical. The following applies: 0.5 nM SHP-2, 500 nM IRS1 peptide, 75 μM DiFMUP; read-out: SHP2wt - IC50. As for the experimental part:
Assay volume of 20 μL/well was assembled in 384 well black polystyrene low-binding microplates (Greiner), using the following buffer: 60 mM HEPES pH 7.2, 75 mM NaCl, 75 mM KCl, 1 mM EDTA pH 8, 0.05% tween-20, 5 mM DTT. The SHP-2 enzyme (synthetized by Origene, Met1-Leu525, cat #TP750155) was used at a final concentration of 0.5 nM.
Briefly, DMSO serially diluted testing compounds were transferred to the bottom of the assay plate. SHP2 was then added together with the IRS1 peptide 30 min post incubation, the DiFMUP substrate was added to the reaction and incubated 30 min at rt. […] The fluorescence was detected by a microplate reader (Envision, PerkinElmer) according to the DiFMUP excitation and emission wavelength. The lower the fluorescence the higher the SHP2 inhibition.
The percentage inhibition is fitted against the compound dilutions with a four-parameter logistic regression. The inflection point (i.e. the concentration at which half-maximal inhibition is achieved) is the IC50.

Where two headings read alike, the source gives them in different places.

One may read the IC50 as the concentration at which inhibition is half-maximal. Consider `Cc1nc(N2CCC3(CC2)Cn2nccc2[C@H]3N)cc(=O)n1-c1cccc(Cl)c1Cl` (single isomer, unassigned) [Example 77a], for which the IC50 in test [1] is 100 to 500 nM; in test [2], at most 50 nM.
For the compound `Cc1nc(N2CCC3(CC2)Cn2nccc2[C@H]3N)cc(=O)n1-c1cccc(Cl)c1Cl` (single isomer, unassigned) [Example 77b], the results for the IC50 in test [1] and in test [2] were over 500 nM and over 300 nM, respectively.
As to `Cc1nc(N2CCC3(CC2)Cn2nccc2[C@H]3N)c(Cl)c(=O)n1-c1cccc(Cl)c1Cl` (single isomer, unassigned) [Example 78a], the IC50 was 100 to 500 nM in test [1] and at most 50 nM in test [2].
On to `Cc1nc(N2CCC3(CC2)Cn2nccc2[C@H]3N)c(Cl)c(=O)n1-c1cccc(Cl)c1Cl` (single isomer, unassigned) [Example 78b], for which the IC50 in test [1] is over 500 nM; in test [2] it was over 300 nM.
In the case of `N[C@@H]1c2ccnn2CC12CCN(c1nc3nc(Sc4cccnc4C(F)(F)F)cnc3[nH]1)CC2` [Example 1, (S)-1-(5-((2-(trifluoromethyl)pyridin-3-yl)thio)-1H-imidazo[4,5-b]pyrazin-2-yl)-4′H,6′H-spiro[piperidine-4,5′-pyrrolo[1,2-b]pyrazol]-4′-amine], the IC50 in test [1] (Homo sapiens, KYSE-520, 2 h) is over 500 nM; in test [2] it was at most 50 nM.
Regarding `Nc1nccc(Sc2cnc3[nH]c(N4CCC5(CC4)Cn4nccc4[C@H]5N)nc3n2)c1Cl` [Example 2, (S)-1-(5-((2-amino-3-chloropyridin-4-yl)thio)-1H-imidazo[4,5-b]pyrazin-2-yl)-4′H,6′H-spiro[piperidine-4,5′-pyrrolo[1,2-b]pyrazol]-4′-amine], the 50% inhibitory concentration (IC50) is over 500 nM in test [1] (Homo sapiens, KYSE-520, 2 h) and at most 50 nM in test [2].
On the same counts, the results for `Nc1nc(N2CCC3(CC2)Cn2nccc2[C@H]3N)cnc1Sc1cccnc1C(F)(F)F` [Example 3, (S)-1-(6-amino-5-((2-(trifluoromethyl)pyridin-3-yl)thio)pyrazin-2-yl)-4′H,6′H-spiro[piperidine-4,5′-pyrrolo[1,2-b]pyrazol]-4′-amine] are under 100 nM and at most 50 nM.
For `Nc1nc(N2CCC3(CC2)Cn2nccc2[C@H]3N)cnc1Sc1ccnc(N)c1Cl` [Example 4, (S)-1-(6-amino-5-((2-amino-3-chloropyridin-4-yl)thio)pyrazin-2-yl)-4′H,6′H-spiro[piperidine-4,5′-pyrrolo[1,2-b]pyrazol]-4′-amine] the same measures were under 100 nM and at most 50 nM.
As for `Cc1cnn2c1[C@@H](N)C1(CCN(c3cnc(Sc4ccnc(N)c4Cl)cn3)CC1)C2` [Example 10, (S)-1-(5-((2-amino-3-chloropyridin-4-yl)thio)pyrazin-2-yl)-3′-methyl-4′H,6′H-spiro[piperidine-4,5′-pyrrolo[1,2-b]pyrazol]-4′-amine], the IC50 was under 100 nM in test [1] (Homo sapiens, KYSE-520, 2 h) and at most 50 nM in test [2].
For `COc1cc2n(n1)CC1(CCN(c3cnc(Sc4ccnc(N)c4Cl)cn3)CC1)[C@@H]2N` [Example 12, (S)-1-(5-((2-amino-3-chloropyridin-4-yl)thio)pyrazin-2-yl)-2′-methoxy-4′H,6′H-spiro[piperidine-4,5′-pyrrolo[1,2-b]pyrazol]-4′-amine] the same measures were 100 to 500 nM and at most 50 nM.
Turning to `N[C@@H]1c2ccnn2CC12CCN(c1ncc(Sc3ccnc4c3OC[C@@H]3CCCN43)c3nccn13)CC2` [Example 17, (S)-1-(8-(((S)-6a,7,8,9-tetrahydro-6H-pyrido[3,2-b]pyrrolo[1,2-d][1,4]oxazin-4-yl)thio)imidazo[1,2-c]pyrimidin-5-yl)-4′H,6′H-spiro[piperidine-4,5′-pyrrolo[1,2-b]pyrazol]-4′-amine], the IC50 is under 100 nM in test [1] (Homo sapiens, KYSE-520, 2 h) and at most 50 nM in test [2].
For `Nc1nc(N2CCC3(CC2)Cn2nc4c(c2[C@H]3N)CCC4)cnc1Sc1ccnc(N)c1Cl` [Example 20, (S)-1′-(6-amino-5-((2-amino-3-chloropyridin-4-yl)thio)pyrazin-2-yl)-1,2,3,8-tetrahydro-6H-spiro[cyclopenta[d]pyrrolo[1,2-b]pyrazole-7,4′-piperidin]-8-amine] the same measures were under 100 nM and at most 50 nM.
Consider `Nc1nccc(Sc2cnc(N3CCC4(CC3)Cn3nc5c(c3C4O)CCC5)c3cncn23)c1Cl` (centres unmarked) [Example 22, 1′-(5-((2-amino-3-chloropyridin-4-yl)thio)imidazo[1,5-a]pyrazin-8-yl)-1,2,3,8-tetrahydro-6H-spiro[cyclopenta[d]pyrrolo[1,2-b]pyrazole-7,4′-piperidin]-8-ol], for which the IC50 is over 500 nM in test [1] (Homo sapiens, KYSE-520, 2 h) and over 300 nM in test [2].
For the compound `N[C@@H]1c2ccnn2CC12CCN(c1ncc(Sc3ccnc4c3OC[C@H]3CC5(CC5)CN43)n3cncc13)CC2` [Example 24, (S)-1-(5-(((R)-6a′,7′-dihydro-6′H,9′H-spiro[cyclopropane-1,8′-pyrido[3,2-b]pyrrolo[1,2-d][1,4]oxazin]-4′-yl)thio)imidazo[1,5-a]pyrazin-8-yl)-4′H,6′H-spiro[piperidine-4,5′-pyrrolo[1,2-b]pyrazol]-4′-amine], the IC50 in test [1] (Homo sapiens, KYSE-520, 2 h) is over 500 nM; in test [2], 50 to 300 nM.
Turning to `N[C@@H]1c2ccnn2CC12CCN(c1cnc(Sc3ccnc(-n4cccn4)c3Cl)cn1)CC2` [Example 33, (S)-1-(5-((3-chloro-2-(1H-pyrazol-1-yl)pyridin-4-yl)thio)pyrazin-2-yl)-4′H,6′H-spiro[piperidine-4,5′-pyrrolo[1,2-b]pyrazol]-4′-amine], in test [1] (Homo sapiens, KYSE-520, 2 h), the IC50 was under 100 nM.
Same read-out and setting: as for `Cc1cn2ccc(Sc3cnc(N4CCC5(CC4)Cn4nccc4[C@H]5N)cn3)c(Cl)c2n1` [Example 43, (S)-1-(5-((8-chloro-2-methylimidazo[1,2-a]pyridin-7-yl)thio)pyrazin-2-yl)-4′H,6′H-spiro[piperidine-4,5′-pyrrolo[1,2-b]pyrazol]-4′-amine], the figure is under 100 nM.
Still for that read-out and setting: as for `Nc1nc(N2CCC3(CC2)Cn2nccc2[C@H]3N)cnc1Sc1ccn2ccnc2c1Cl` [Example 44, (S)-1-(6-amino-5-((8-chloroimidazo[1,2-a]pyridin-7-yl)thio)pyrazin-2-yl)-4′H,6′H-spiro[piperidine-4,5′-pyrrolo[1,2-b]pyrazol]-4′-amine], the figure is under 100 nM.
`Cc1nccc(Sc2cnc(N3CCC4(CC3)Cn3cccc3[C@H]4N)cn2)c1F` [Example 87, (S)-1-(5-((3-fluoro-2-methylpyridin-4-yl)thio)pyrazin-2-yl)-1′H,3′H-spiro[piperidine-4,2′-pyrrolizin]-1′-amine]: in test [2], the IC50 was at most 50 nM.
`Cc1c(N2CCC3(CC2)Cn2nccc2[C@H]3N)nc(C)n(-c2cccc(Cl)c2Cl)c1=O` [Example 88, (S)-6-(4′-amino-4′H,6′H-spiro[piperidine-4,5′-pyrrolo[1,2-b]pyrazol]-1-yl)-3-(2,3-dichlorophenyl)-2,5-dimethylpyrimidin-4(3H)-one]: the IC50 in test [2] was at most 50 nM.
Regarding `Cc1nccc(-c2ncc3c(N4CCC5(CC4)Cn4nccc4[C@H]5N)nccn23)c1F` [Example 89, (S)-1-(3-(3-fluoro-2-methylpyridin-4-yl)imidazo[1,5-a]pyrazin-8-yl)-4′H,6′H-spiro[piperidine-4,5′-pyrrolo[1,2-b]pyrazol]-4′-amine], in test [2], the IC50 lay in the range of 50 to 300 nM.
The same measure, in the same setting: as for `N[C@@H]1c2ccnn2CC12CCN(c1ccc(Oc3cccc(Cl)c3Cl)nc1)CC2` [Example 90, (S)-1-(6-(2,3-dichlorophenoxy)pyridin-3-yl)-4′H,6′H-spiro[piperidine-4,5′-pyrrolo[1,2-b]pyrazol]-4′-amine], the figure is 50 to 300 nM.
